# From patent US8841233B2, “Herbicidal compositions comprising 4-amino-3-chloro-5-fluoro-6-(4-chloro-2-fluoro-3-methoxyphenyl) pyridine-2-carboxylic acid or a derivative thereof and 4-hydroxyphenyl-pyruvate dioxygenase (HPPD) inhibitors” (Dow Agrosciences LLC, priority 2012, dated 2014)
# Columns and labels:
# IPOHE = assay: Post-emergence foliar-applied weed control, greenhouse (Example I); assay type: in vivo, Ipomoea hederacea Jacq.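 Further: visual score 0 no injury to 100 complete kill versus untreated plants.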
# From the text: (§1) Evaluation of Post-emergence Foliar-Applied Herbicidal Mixtures for Weed Control in Direct Seeded Rice
# (§2) Seeds or nutlets of the desired test plant species were planted in a soil matrix prepared by mixing a loam or sandy loam soil (e.g., 28.6 percent silt, 18.8 percent clay, and 52.6 percent sand, with a pH of about 5.8 and an organic matter content of about 1.8 percent) and calcareous grit in an 80 to 20 ratio. The soil matrix was contained in plastic pots with a volume of 1 quart and a surface area of 83.6 square centimeters (cm^2). When required to ensure good germination and healthy plants, a fungicide treatment and/or other chemical or physical treatment was applied. The plants were grown for 8-22 days in a greenhouse with an approximate 14 h photoperiod which was maintained at about 29° C. during the day and 26° C. during the night. Nutrients (Peters Excel® 15-5-15 5-Ca 2-Mg and iron chelate) were applied in the irrigation solution as needed and water was added on a regular basis. Supplemental lighting was provided with overhead metal halide 1000-Watt lamps as necessary. The plants were employed for testing when they reached the first through fourth true leaf stage.
# (§3) Treatments consisted of the acid or esters of 4-amino-3-chloro-5-fluoro-6-(4-chloro-2-fluoro-3-methoxy-phenyl)pyridine-2-carboxylic acid (Compound A), each formulated as an SC (suspension concentrate), and various herbicidal components alone and in combination. Forms of Compound A were applied on an acid equivalent basis.
# (§4) Other herbicidal components were applied on an active ingredient basis and included 4-hydroxyphenyl pyruvate dioxygenase (HPPD)-inhibiting herbicides mesotrione formulated as Callisto®, sulcotrione formulated as Mikado®, pyrazolynate formulated as Sunbird® 10% GR, and benzobicyclon formulated as Benzobicyclon 3.5%.
# (§5) Treatment requirements were calculated based upon the rates being tested, the concentration of active ingredient or acid equivalent in the formulation, and a 12 mL application volume at a rate of 187 L/ha.
# (§6) For treatments comprised of formulated compounds, measured amounts of compounds were placed individually in 25 mL glass vials and diluted in a volume of 1.25% (v/v) Agri-Dex® crop oil concentrated to obtain 12× stock solutions. […] Application solutions were prepared by adding an appropriate amount of each stock solution (e.g., 1 mL) and diluted to the appropriate final concentrations with the addition of 10 mL of an aqueous mixture of 1.25% (v/v) crop oil concentrate so that the final spray solutions contained 1.25+/−0.05% (v/v) crop oil concentrate.
# (§7) For treatments comprised of formulated and technical compounds, weighed amounts of the technical materials were placed individually in 25 mL glass vials and dissolved in a volume of 97:3 v/v acetone/DMSO to obtain 12× stock solutions, and measured amounts of the formulated compounds were placed individually in 25 mL glass vials and diluted in a volume of 1.5% (v/v) crop oil concentrate or water to obtain 12× stock solutions. […] Application solutions were prepared by adding an appropriate amount of each stock solution (e.g., 1 mL) and diluted to the appropriate final concentrations with the addition of an appropriate amount of an aqueous mixture of 1.5% (v/v) crop oil concentrate so that the final spray solutions contained 1.25% (v/v) crop oil concentrate. As required, additional water and/or 97:3 v/v acetone/DMSO was added to individual application solutions so that the final acetone and DMSO concentrations of the application solutions being compared were 8.1% and 0.25%, respectively.
# (§8) All stock solutions and applications solutions were visually inspected for compound compatibility prior to application. Spray solutions were applied to the plant material with an overhead Mandel track sprayer equipped with a 8002E nozzles calibrated to deliver 187 L/ha over an application area of 0.503 m^2 at a spray height of 18 to 20 inches (46 to 50 cm) above average plant canopy height. […]
# ECHOR = assay: In-water applied weed control, transplanted paddy rice, greenhouse (Example II); assay type: in vivo, Echinochloa oryzoides (Ard.) Fritsch
# Procedure: (§9) Evaluation of in-Water Applied Herbicidal Mixtures for Weed Control in Transplanted Paddy Rice
# (§10) Weed seeds or nutlets of the desired test plant species were planted in puddled soil (mud) prepared by mixing a shredded, non-sterilized mineral soil (50.5 percent silt, 25.5 percent clay, and 24 percent sand, with a pH of about 7.6 and an organic matter content of about 2.9 percent) and water at a 1:1 volumetric ratio. The prepared mud was dispensed in 365 mL aliquots into 16-ounce (oz.) non-perforated plastic pots with a surface area of 86.59 square centimeters (cm^2) leaving a headspace of 3 centimeters (cm) in each pot. Mud was allowed to dry overnight prior to planting or transplanting. Rice seeds were planted in Sun Gro MetroMix® 306 planting mixture, which typically has a pH of 6.0 to 6.8 and an organic matter content of about 30 percent, in plastic plug trays. Seedlings at the second or third leaf stage of growth were transplanted into 840 mL of mud contained in 32-oz. non-perforated plastic pots with a surface area of 86.59 cm^2 4 days prior to herbicide application. The paddy was created by filling the headspace of the pots with 2.5 to 3 cm of water. When required to ensure good germination and healthy plants, a fungicide treatment and/or other chemical or physical treatment was applied. The plants were grown for 4-22 days in a greenhouse with an approximate 14 h photoperiod which was maintained at about 29′C during the day and 26° C. during the night. Nutrients were added as Osmocote® (19:6:12, N:P:K+ minor nutrients) at 2 g per 16-oz. pot and 4 g per 32-oz. pot. Water was added on a regular basis to maintain the paddy flood, and supplemental lighting was provided with overhead metal halide 1000-Watt lamps as necessary. The plants were employed for testing when they reached the first through fourth true leaf stage.
# as §3, with “(compound A)” for “(Compound A),”, “concentrate)” for “concentrate),”, “compound” for “Compound”
# as §4, with “3.5% or technical material.” for “3.5%.”
# (§11) Treatment requirements for each compound or herbicidal component were calculated based upon the rates being tested, the concentration of active ingredient or acid equivalent in the formulation, an application volume of 2 mL per component per pot, and an application area of 86.59 cm^2 per pot.
# (§12) For formulated compounds, a measured amount was placed in an individual 100 or 200 mL glass vial and was dissolved in a volume of 1.25% (v/v) Agri-Dex® crop oil concentrate to obtain application solutions.
# (§13) For technical grade compounds, a weighed amount was placed in an individual 100 to 200 mL glass vial and was dissolved in a volume of acetone to obtain concentrated stock solutions. […] The concentrated stock solutions obtained were diluted with an equivalent volume of an aqueous mixture containing 2.5% (v/v) crop oil concentrate so that the final application solutions contained 1.25% (v/v) crop oil concentrate.
# (§14) Applications were made by injecting with a pipetter appropriate amounts of the application solutions, individually and sequentially, into the aqueous layer of the paddy. Control plants were treated in the same manner with the solvent blank. Applications were made so that all treated plant material received the same concentrations of acetone and crop oil concentrate.
# (§15) The treated plants and control plants were placed in a greenhouse as described above and water was added as needed to maintain a paddy flood. […]
# ECHCG [1] = assay: as above; assay type: in vivo, Echinochloa crusgalli (L.) Beauv.
# Procedure: as §9, §10
# as §3, with “(compound A)” for “(Compound A),”, “concentrate)” for “concentrate),”, “compound” for “Compound”
# as §4, with “3.5% or technical material.” for “3.5%.”
# as §11, §12, §13, §14, §15
# BRAPP = assay: Post-emergence foliar-applied weed control, greenhouse (Example I); assay type: in vivo
# From the text: as §1, §2, §3, §4, §5, §6, §7, §8
# FIMMI = assay: In-water applied weed control, transplanted paddy rice, greenhouse (Example II); assay type: in vivo, Fimbristylis miliacea (L.) Vahl; details: 35 gai/ha
# Procedure: as §9, §10
# as §3, with “(compound A)” for “(Compound A),”, “concentrate)” for “concentrate),”, “compound” for “Compound”
# as §4, with “3.5% or technical material.” for “3.5%.”
# as §11, §12, §13, §14, §15
# SCPMA = assay: as above; assay type: in vivo; details: 35 gai/ha
# Procedure: as §9, §10
# as §3, with “(compound A)” for “(Compound A),”, “concentrate)” for “concentrate),”, “compound” for “Compound”
# as §4, with “3.5% or technical material.” for “3.5%.”
# as §11, §12, §13, §14, §15
# ECHCO = assay: Post-emergence foliar-applied weed control, greenhouse (Example I); assay type: in vivo, Echinochloa colona (L.) Link
# From the text: as §1, §2, §3, §4, §5, §6, §7, §8
# SCPJU = assay: as above; assay type: in vivo, Schoenoplectus juncoides (Roxb.) Palla
# From the text: as §1, §2, §3, §4, §5, §6, §7, §8
# CYPIR = assay: as above; assay type: in vivo, Cyperus iria L.
# From the text: as §1, §2, §3, §4, §5, §6, §7, §8
# DIGSA = assay: as above; assay type: in vivo, Digitaria sanguinalis (L.) Scop.; details: 140 gaiha
# From the text: as §1, §2, §3, §4, §5, §6, §7, §8
# ECHCG [2] = assay: as above; assay type: in vivo, Echinochloa crusgalli (L.) Beauv.
# From the text: as §1, §2, §3, §4, §5, §6, §7, §8
# 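Wherever Visual Weed Control (%) - 20 DAA ECHCG Obs is given: visual score 0 no injury to 100 complete kill versus untreated plants.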
structure (smiles),measurement,setting,value
"CS(=O)(=O)c1ccc(C(=O)C2C(=O)CCCC2=O)c([N+](=O)[O-])c1 [Mesotrione, 2-[4-(methylsulfonyl)-2-nitrobenzoyl]-1,3-cyclohexanedione, reference compound]",Visual Weed Control (%) - 20 DAA IPOHE Obs,IPOHE; 35 gai/ha,25%
same,Visual Weed Control (%) - 20 DAA IPOHE Obs,IPOHE; 70 gai/ha,50%
same,Visual Weed Control (%) - 20 DAA ECHOR Obs,ECHOR; 140 gaiha,80%
same,Visual Weed Control (%) -20 DAA ECHOR Obs,ECHOR; 140 gaiha,80%
same,Visual Weed Control (%) - 20 DAA ECHCG Obs,ECHCG [1]; 35 gai/ha,10%
same,Visual Weed Control (%) - 20 DAA ECHCG Obs,ECHCG [1]; 70 gai/ha,25%
same,Visual Weed Control (%) - 20 DAA BRAPP Obs,BRAPP; 17.5 gai/ha,0%
same,Visual Weed Control (%) - 20 DAA BRAPP Obs,BRAPP; 35 gai/ha,0%
same,Visual Weed Control (%) - 21 DAA FIMMI Obs,FIMMI,78%
same,Visual Weed Control (%) - 21 DAA SCPMA Obs,SCPMA,80%
same,Visual Weed Control (%) - 20 DAA ECHCO Obs,ECHCO; 17.5 gai/ha,0%
same,Visual Weed Control (%) - 20 DAA ECHCO Obs,ECHCO; 35 gai/ha,0%
same,Visual Weed Control (%) - 20 DAA ECHCO Obs,ECHCO; 70 gai/ha,0%
same,Visual Weed Control (%) - 20 DAA SCPJU Obs,SCPJU; 17.5 gai/ha,50%
same,Visual Weed Control (%) - 20 DAA SCPJU Obs,SCPJU; 35 gai/ha,80%
same,Visual Weed Control (%) - 20 DAA CYPIR Obs,CYPIR; 17.5 gai/ha,0%
same,Visual Weed Control (%) - 20 DAA CYPIR Obs,CYPIR; 35 gai/ha,50%
same,Visual Weed Control (%) - 20 DAA DIGSA Obs,DIGSA,58%
CCCCOC(=O)c1nc(-c2ccc(Cl)c(OC)c2F)c(F)c(N)c1Cl [Compound A n-Butyl Ester],Visual Weed Control (%) -20 DAA ECHOR Obs,ECHOR; 35 gae/ha,35%
same,Visual Weed Control (%) -20 DAA ECHOR Obs,ECHOR; 70 gae/ha,40%
same,Visual Weed Control (%) - 21 DAA ECHCG Obs,ECHCG [2]; 17.5 gae/ha,78%
same,Visual Weed Control (%) - 21 DAA ECHCG Obs,ECHCG [2]; 35 gae/ha,93%
